From US20250326744A1, “PIPERAZINE DERIVATIVE OR SALT THEREOF, AND PHARMACEUTICAL COMPOSITION” (priority 2022, published 2025)
Structures can show the parent of a compound that is named as a salt.

How the values were obtained:
[1] = system: S-3769 strain; experiment: Combinational effect with antibacterial agent against Pseudomonas aeruginosa (Test Examples 2 and 4): S-3769 strain with AMK or GM at 1/4 MIC, EC99; format: cell-based; conditions: Table 52, Test Example 2, 16 to 20 hours culture, OD595; for EC99, S-3769 strain, AMK: combined with AMK at 1/4 MIC; for EC99, S-3769 strain, GM: combined with GM at 1/4 MIC
Method in brief: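 P. aeruginosa S-3769 (clinical isolate, MexY overexpressed) grown 16–20 h in CAMHB, 10^4 to 5 CFU/well, with AMK or GM at ¼ MIC plus test compound 0–800 μM. Growth read as OD595; EC99 is the lowest compound concentration giving ≥99% growth inhibition.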

[2] = system: mexB (PA) strain; experiment: Combinational effect with antibacterial agent against Pseudomonas aeruginosa (Test Examples 2 and 4): mexB (PA) strain with LVFX, TC or AZT at 1/4 MIC, EC99; format: cell-based; conditions: Table 52, Test Example 2, 16 to 20 hours culture, OD595; for EC99, mexB (PA), AZT: combined with AZT at 1/4 MIC; for EC99, mexB (PA), LVFX: combined with LVFX at 1/4 MIC; for EC99, mexB (PA), TC: combined with TC at 1/4 MIC
Method in brief: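 P. aeruginosa mexB (PA) strain, lacking MexCD-OprJ, MexEF-OprN and MexXY and overexpressing MexAB-OprM, grown 16–20 h in CAMHB (10^4–5 CFU/well) with LVFX, TC or AZT at ¼ MIC plus test compound at 0–800 μM. Growth read as OD595; EC99 is the lowest compound concentration giving ≥99% growth inhibition.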

SMILES	EC99, S-3769 strain, AMK [1]	EC99, S-3769 strain, GM [1]	EC99, mexB (PA), AZT [2]	EC99, mexB (PA), LVFX [2]	EC99, mexB (PA), TC [2]
CCOc1cccc(F)c1CN1CCN(C(=O)[C@H](N)C2CCN(CCc3cc(Cl)ccc3-c3ccccc3OC)CC2)CC1 [Example 76, Hydrobromide of (R.)-2-amino-2-(1-(2-(4-chloro-2′-methoxy-[1,1′-biphenyl]-2-yl)ethyl)piperidin-4-yl)-1-(4-(2-ethoxy-6-fluorobenzyl)piperazin-1-yl)ethan-1-one]	A (12.5 μM<EC99≤25 μM)	A (12.5 μM<EC99≤25 μM)	A (12.5 μM<EC99≤25 μM)	B (25 μM<EC99≤100 μM)	B (25 μM<EC99≤100 μM)
CCOc1cccc(F)c1CN1CCN(C(=O)[C@H](N)C2CCN(CCc3cc(Cl)ccc3C3CC3)CC2)CC1 [Example 78, Hydrobromide of (R)-2-amino-2-(1-(5-chloro-2-cyclopropylphenethyl)piperidin-4-yl)-1-(4-(2-ethoxy-6-fluorobenzyl)piperazin-1-yl)ethan-1-one]	S (EC99≤12.5 μM)	S (EC99≤12.5 μM)	B (25 μM<EC99≤100 μM)	C (100 μM<EC99)	B (25 μM<EC99≤100 μM)
CCOc1cccc(F)c1CN1CCN(C(=O)[C@H](N)C2CCN(CCc3c(-c4ccccc4)ccc(Cl)c3F)CC2)CC1 [Example 79, Hydrobromide of (R)-2-amino-2-(1-(2-(4-chloro-3-fluoro-[1,1′-biphenyl]-2-yl)ethyl)piperidin-4-yl)-1-(4-(2-ethoxy-6-fluorobenzyl)piperazin-1-yl)ethan-1-one]	S (EC99≤12.5 μM)	A (12.5 μM<EC99≤25 μM)	B (25 μM<EC99≤100 μM)	B (25 μM<EC99≤100 μM)	B (25 μM<EC99≤100 μM)
CCOc1cccc(F)c1CN1CCN(C(=O)[C@H](N)C2CCN(CCc3cc(C)ccc3-c3ccccc3)CC2)CC1 [Example 81, Hydrobromide of (R)-2-amino-1-(4-(2-ethoxy-6-fluorobenzyl)piperazin-1-yl)-2-(1-(2-(4-methyl-[1,1′-biphenyl]-2-yl)ethyl)piperidin-4-yl)ethan-1-one]	S (EC99≤12.5 μM)	S (EC99≤12.5 μM)	B (25 μM<EC99≤100 μM)	B (25 μM<EC99≤100 μM)	B (25 μM<EC99≤100 μM)
CCOc1cccc(F)c1CN1CCN(C(=O)[C@H](N)C2CCN(CCc3cc(C(F)(F)F)ccc3-c3ccccc3)CC2)CC1 [Example 83, Hydrobromide of (R)-2-amino-1-(4-(2-ethoxy-6-fluorobenzyl)piperazin-1-yl)-2-(1-(2-(4-(trifuluoromethyl)-[1,1′-biphenyl]-2-yl)ethyl)piperidin-4-yl) ethan-1-one]	B (25 μM<EC99≤100 μM)	B (25 μM<EC99≤100 μM)	B (25 μM<EC99≤100 μM)	B (25 μM<EC99≤100 μM)	B (25 μM<EC99≤100 μM)
CCOc1cccc(F)c1CN1CCN(C(=O)[C@H](N)C2CCN(CCc3cc(OC(F)(F)F)ccc3-c3ccccc3Cl)CC2)CC1 [Example 86, Hydrobromide of (R)-2-amino-2-(1-(2-(2′-chloro-4-(trifluoromethoxy)-[1,1′-biphenyl]-2-yl)ethyl)piperidin-4-yl)-1-(4-(2-ethoxy-6-fluorobenzyl)piperazin-1-yl)ethan-1-one]	B (25 μM<EC99≤100 μM)	B (25 μM<EC99≤100 μM)	B (25 μM<EC99≤100 μM)	B (25 μM<EC99≤100 μM)	B (25 μM<EC99≤100 μM)
CCOc1cccc(F)c1CN1CCN(C(=O)[C@H](N)C2CCN(CCc3cc(Cl)ccc3C3=CCCNC3)CC2)CC1 [Example 88, Hydrobromide of (R)-2-amino-2-(1-(5-chloro-2-(1,2,5,6-tetrahydropyridin-3-yl)phenethyl)piperidin-4-yl)-1-(4-(2-ethoxy-6-fluorobenzyl)piperazin-1-yl) ethan-1-one]	S (EC99≤12.5 μM)	S (EC99≤12.5 μM)	C (100 μM<EC99)	C (100 μM<EC99)	B (25 μM<EC99≤100 μM)
CCOc1cccc(F)c1CN1CCN(C(=O)[C@H](N)C2CCN(CCc3cc(Cl)ccc3-c3ccc(F)cc3Cl)CC2)CC1 [Example 90, Hydrobromide of (R)-2-amino-2-(1-(2-(2′,4-dichloro-4′-fluoro-[1,1′-biphenyl]-2-yl)ethyl)piperidin-4-yl)-1-(4-(2-ethoxy-6-fluorobenzyl)piperazin-1-yl) ethan-1-one]	A (12.5 μM<EC99≤25 μM)	B (25 μM<EC99≤100 μM)	B (25 μM<EC99≤100 μM)	B (25 μM<EC99≤100 μM)	A (12.5 μM<EC99≤25 μM)
CCOc1cccc(F)c1CN1CCN(C(=O)[C@H](N)C2CCN(CCc3cc(Cl)ccc3-c3cnccc3Cl)CC2)CC1 [Example 91, Hydrobromide of (R)-2-amino-2-(1-(5-chloro-2-(4-chloropyridin-3-yl)phenethyl)piperidin-4-yl)-1-(4-(2-ethoxy-6-fluorobenzyl)piperazin-1-yl) ethan-1-one]	B (25 μM<EC99≤100 μM)	B (25 μM<EC99≤100 μM)	B (25 μM<EC99≤100 μM)	C (100 μM<EC99)	B (25 μM<EC99≤100 μM)
CCOc1cccc(F)c1CN1CCN(C(=O)[C@H](N)C2CCN(CCc3cc(Cl)ccc3-c3cnccc3N)CC2)CC1 [Example 93, (R)-2-amino-2-(1-(2-(4-aminopyridin-3-yl)-5-chlorophenethyl)piperidin-4-yl)-1-(4-(2-ethoxy-6-fluorobenzyl)piperazin-1-yl)ethan-1-one]	B (25 μM<EC99≤100 μM)	B (25 μM<EC99≤100 μM)	S (EC99≤12.5 μM)	S (EC99≤12.5 μM)	S (EC99≤12.5 μM)
CCOc1ccc(O)c(F)c1CN1CCN(C(=O)[C@H](N)C2CCN(CCc3ccccc3)CC2)CC1 [Example 94, hydrobromide of (R)-2-amino-1-(4-(6-ethoxy-2-fluoro-3-hydroxybenzyl)piperazin-1-yl)-2-(1-phenethylpiperidin-4-yl)ethan-1-one]	B (25 μM<EC99≤100 μM)	B (25 μM<EC99≤100 μM)	C (100 μM<EC99)	C (100 μM<EC99)	C (100 μM<EC99)
CCOc1cccc(F)c1CN1CCN(C(=O)[C@H](N)C2CCN(CCc3cc(Cl)ccc3-c3ccccc3N)CC2)CC1 [Example 97, (R)-2-amino-2-(1-(2-(2′-amino-4-chloro-[1,1′-biphenyl]-2-yl)ethyl)piperidin-4-yl)-1-(4-(2-ethoxy-6-fluorobenzyl)piperazin-1-yl)ethan-1-one]	A (12.5 μM<EC99≤25 μM)	S (EC99≤12.5 μM)	S (EC99≤12.5 μM)	S (EC99≤12.5 μM)	A (12.5 μM<EC99≤25 μM)
CCOc1cccc(F)c1CN1CCN(C(=O)[C@H](N)C2CCN(CCc3cc(Cl)ccc3-c3cccc(N)c3)CC2)CC1 [Example 99, Hydrobromide of (R)-2-amino-2-(1-(2-(3′-amino-4-chloro-[1,1′-biphenyl]-2-yl)ethyl)piperidin-4-yl)-1-(4-(2-ethoxy-6-fluorobenzyl)piperazin-1-yl)ethan-1-one]	S (EC99≤12.5 μM)	S (EC99≤12.5 μM)	B (25 μM<EC99≤100 μM)	A (12.5 μM<EC99≤25 μM)	A (12.5 μM<EC99≤25 μM)
CCOc1cccc(F)c1CN1CCN(C(=O)[C@H](N)C2CCN(CCc3cc(Cl)ccc3-c3cccc(O)c3)CC2)CC1 [Example 100, (R)-2-amino-2-(1-(2-(4-chloro-3′-hydroxy-[1,1′-biphenyl]-2-yl)ethyl)piperidin-4-yl)-1-(4-(2-ethoxy-6-fluorobenzyl)piperazin-1-yl)ethan-1-one]	S (EC99≤12.5 μM)	S (EC99≤12.5 μM)	A (12.5 μM<EC99≤25 μM)	A (12.5 μM<EC99≤25 μM)	A (12.5 μM<EC99≤25 μM)
CCOc1cccc(F)c1CN1CCN(C(=O)[C@H](N)C2CCN(CCc3cc(Cl)ccc3-c3ccsc3)CC2)CC1 [Example 101, Hydrobromide of (R)-2-amino-2-(1-(5-chloro-2-(thiophen-3-yl)phenethyl)piperidin-4-yl)-1-(4-(2-ethoxy-6-fluorobenzyl)piperazin-1-yl)ethan-1-one]	S (EC99≤12.5 μM)	S (EC99≤12.5 μM)	B (25 μM<EC99≤100 μM)	C (100 μM<EC99)	B (25 μM<EC99≤100 μM)
